Data set [1] deals with T1, HIV-1 reverse transcriptase, wild type (WT) (Human immunodeficiency virus type 1 (BRU ISOLATE), UniProt P03367).
T1 construct: recombinant clone pBRTprtl+ (vector pIBI21, lac promoter) in E. coli JM109
Nature of the data set: Reverse transcriptase (RT) assay, wild type enzyme (RNA-dependent DNA polymerase activity). As to conditions: read-out: RT (WT) Assay % inh. (1 μM). It is filed as biochemical, Human Immunodeficiency Virus (HIV-1), LAV strain. An excerpt: Utilizing the Reverse Transcriptase (RT) Assay described below, compounds can be tested for their ability to inhibit the RNA-dependent DNA polymerase activity of HIV-1 RT. Certain specific compounds described in the Examples which appear below, were so tested.
Among the enzymes for which Human Immunodeficiency Virus (HIV-1) encodes is a reverse transcriptase (1), so-named because it transcribes a DNA copy from an RNA template. This activity can be quantitatively measured in a cell-free enzyme assay, which has been previously described (2), and is based upon the observation that reverse transcriptase is able to use a synthetic template [poly r(C) primed with oligo d(G)] to transcribe a radio-labelled, acid-precipitable DNA strand utilizing ^3 H-dGTP as a substrate. The assay described below utilizes the wild type (WT) enzyme, which is the predominant form of the enzyme observed in patients infected with HIV-1. Utilization of the mutant RT enzyme (Y181C, prepared by site-directed mutagenesis in which the tyrosine residue at codon 181 has been replaced by a cysteine residue) and analogous assay conditions allows compounds to be evaluated for their effectiveness at inhibiting this mutant enzyme. […]

A short description of data set [2]: MTT assay (cytotoxicity). Format: cell-based. As to conditions: human; H9 cells, five days. On the procedure:
In order to roughly assess the cytotoxicity of the compounds provided by the invention, several such compounds were tested in the MTT Assay described below. Compounds having a relatively high CC50 are preferred.
The MTT [3-(4,5-dimethylthiazol-2-yl)-2,5 diphenyl tetrazolium bromide) assay is based on cleavage of tetrazolium bromide by metabolically active cells, resulting in a highly quantitative blue color. This assay has been previously described (1) but has been optimized for the purposes of the testing reported herein.
The H9 cell line (2), an established human lymphoma suspension cell line grown in RPMI 1640 supplemented with 10% fetal bovine serum, is used as the target cell line in the assay. Cells (100 μL) are plated in microtest plate wells at a concentration of 10^5 cells per mL in the presence of varying concentrations of inhibitor. The cells are incubated at 37° C. in a humidified CO2 incubator. Five days later, 20 μL of MTT (5 mg/mL in RPMI 1640, sonicated, 0.2 micron filtered, and stored at 4° C.) is added to each well. After 4 hours additional incubation at 37° C., 60 μL of Triton-X is added to each well and thoroughly mixed to aid the solubilization of the crystals. Absolute ethanol (5 μL) is added to each well and the resulting mixture is incubated for 30 minutes at 60° C. and immediately read on a plate reader (Dynatech) at a wavelength of 570 nm. […]

Among the data in US5747488A, “2-aryl-5,11-dihydro-6H-dipyrido[3,2-B:2',3'-E][1, 4]diazepines and their use in the treatment of HIV infection” (Boehringer Ingelheim Pharmaceuticals, Inc., priority 1996, dated 1998) are inhibition and CC50 values, retold here.

Molecules are shown by their SMILES.

Regarding `CCN1c2ncccc2-c2ncc(C)n2-c2ccc(-c3cn[nH]c3)nc21` [Example 1, 8-Ethyl-1-methyl-10-(4-pyrazolyl)imidazo[2',3':6,5]dipyrido[3,2-b:2',3'-e][1,4]diazepine], the inhibition at 1 µM in data set [1] is 95%. This molecule also came in with a CC50 at 120 h in data set [2] above 100 µM.
